Source: patent US20130023573A1, “ALPHA-2 […] TREATING VISUAL DISORDERS MEDIATED BY CENTRAL VISUAL P[…] THE EYE” (priority 2011, published 2013)

Assays:
[1] = rats, after oral dose of brimonidine tartrate (Acheampong et al., Xenobiotica 2007); cited from earlier work
[2] = tested on: rat visual cortex slices; test: Long-term potentiation in visual cortex slice; format: cell-based; conditions: LTP at 30 min after induction; for threshold dose for dose-dependent facilitation of LTP: rat visual cortex slices, drug infused 20 min before theta burst stimulation
Protocol: Following decapitation of the anesthetized rat, the brain was rapidly removed and immersed in ice-cold artificial cerebrospinal fluid (ACSF) containing (in mM) NaCl 124, KCl 3, KH2PO4 1.25, CaCl2 3.4, MgSO4 2.5, NaHCO3 26, and D-glucose 10. A block of visual cortex was created by removing the frontal ⅔ portion of the brain and the cerebellum. Coronal visual cortex slices of 350 μm thick were prepared from young adult (200-300 g) male Sprague-Dawley rats using a vibratome (VT 1000 S; Leica). The slices were maintained in an interface recording chamber perfused with preheated ACSF. Slices were continuously perfused with this solution at a rate of 1.00-1.50 ml/min while the surface of the slices was exposed to warm, humidified […] and maintained at 31±1° C. Visual cortex slices were allowed to recover for 1 hr before recording began. A single stimulating and recording electrode was placed in layer IV and III, respectively, to generate and record field excitatory postsynaptic potentials (fEPSPs). Pulses were administered at 0.05 Hz using a current that produced a fEPSP that is 50% of the maximum spike free response. An input-output (IO) curve was done to determine the stimulation needed to achieve a stable baseline. Following a 15 min stable baseline recording period, a train of 5 theta bursts (each burst containing four pulses at 100 Hz with an inter-burst interval of 200 ms) was delivered to the slice. This was repeated 2 additional times with a 1 minute inter-train interval, and the level of LTP was recorded for at least 30 min. Changes in amplitude of the synaptic response were used to measure the extent of LTP, since the amplitude was determined to be the more consistent parameter than the slope of the response. Control LTP values were obtained from slices not treated with drug. Different slices were used to study drug effects on LTP. Compound 4-bromo-N-(imidazolidin-2-ylidene)-1H-benzimidazol-5-amine or (S)-(3-(1-(1H-imidazol-4-yl)ethyl)-2-methylphenyl)methanol) was infused after 15 min baseline recording for a duration of 20 minutes followed by LTP induction. Drug washout began 5 minutes after tetanization. Recording of the amplitude before, during, and after drug infusion was continuously done at 0.05 Hz. Statistical comparisons were done with LTP values recorded at 30 minutes after induction for drug-treated vs control slices (non-paired t-test).
In brief, brain slices from primary visual cortex were prepared and recording of evoked field responses was done as described in the ‘general procedure’ section. A typical LTP run began with establishing a stable baseline, then treatment for 20 min with 4-bromo-N-(imidazolidin-2-ylidene)-1H-benzimidazol-5-amine followed by LTP induction via brief high-frequency theta burst stimulation (TBS) and drug washout 5 min after TBS, and ended after monitoring the amount of LTP for at least 30 min. Control LTP was measured in a group of separate slices within the same chamber infused with aCSF. The amount of LTP present at 30 min after induction was used to compare drug effects at different concentrations relative to the control group. […] The percent increase in LTP was shown relative to the pre-LTP baseline for each condition.
The percent increase in LTP was shown relative to the pre-LTP baseline for each condition.

Structure (SMILES)	amount found in urine [1]	LTP compared to control slices ([2]; 3 nM)	LTP compared to control slices ([2]; 30 nM)	LTP compared to control slices ([2]; 300 nM)	threshold dose for dose-dependent facilitation of LTP [2] [nM]	LTP compared to control slices ([2]; 100 nM)
Brc1c(N=C2NCCN2)ccc2[nH]cnc12 [4-bromo-N-(imidazolidin-2-ylidene)-1H-benzimidazol-5-amine]	trace amounts	significantly facilitated	significantly facilitated	significantly facilitated	3	
Cc1c(CO)cccc1[C@H](C)c1c[nH]cn1 [(S)-(3-(1-(1H-imidazol-4-yl)ethyl)-2-methylphenyl)methanol]				significantly facilitated	100	significantly facilitated
